Measured values: ChEMBL document CHEMBL1201862, “PubChem BioAssay data set” (2004)
Active and inactive are the calls of the source. Rule as the data show it, for most assays here: actives have a measured IC50 and inactives only a lower limit.

Tests used:
Assay type in all cases: functional
[1] = biological target: T1, High affinity choline transporter 1 (Homo sapiens, UniProt Q9GZV3); test: human choline transporter blockers, potency – cell-based, 5-point CRC, membrane potential dye, dose response (AID 504840)
T1 sequence (Q9GZV3 whole entry): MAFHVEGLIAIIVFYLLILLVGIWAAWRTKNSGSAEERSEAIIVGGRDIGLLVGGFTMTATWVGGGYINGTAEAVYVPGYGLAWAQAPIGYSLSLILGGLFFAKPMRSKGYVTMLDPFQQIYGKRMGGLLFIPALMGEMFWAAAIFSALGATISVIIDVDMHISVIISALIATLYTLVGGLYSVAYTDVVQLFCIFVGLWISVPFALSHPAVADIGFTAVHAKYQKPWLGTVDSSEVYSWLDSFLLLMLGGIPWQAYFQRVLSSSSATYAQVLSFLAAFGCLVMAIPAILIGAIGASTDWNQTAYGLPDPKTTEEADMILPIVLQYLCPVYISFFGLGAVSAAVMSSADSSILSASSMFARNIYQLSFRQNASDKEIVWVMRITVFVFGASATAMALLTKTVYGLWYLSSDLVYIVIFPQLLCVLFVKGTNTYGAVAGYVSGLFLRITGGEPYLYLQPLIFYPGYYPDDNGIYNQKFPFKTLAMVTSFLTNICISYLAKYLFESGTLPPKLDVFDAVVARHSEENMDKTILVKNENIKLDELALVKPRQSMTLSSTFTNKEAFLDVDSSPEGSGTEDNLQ

[2] = biological target: T1, High affinity choline transporter 1; test: human choline transporter blockers, potency – cell-based, 10-point CRC, membrane potential dye, dose response (AID 588401);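 also: membrane potential dye fluorescence of choline-evoked depolarization via CHT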
[3] = biological target: T2, Sentrin-specific protease 8 (Homo sapiens, UniProt Q96LD8); test: inhibition of human SENP8 cleavage activity – biochemical, luminescence, SAR follow-up (AID 504501)
T2 sequence (Q96LD8 whole entry): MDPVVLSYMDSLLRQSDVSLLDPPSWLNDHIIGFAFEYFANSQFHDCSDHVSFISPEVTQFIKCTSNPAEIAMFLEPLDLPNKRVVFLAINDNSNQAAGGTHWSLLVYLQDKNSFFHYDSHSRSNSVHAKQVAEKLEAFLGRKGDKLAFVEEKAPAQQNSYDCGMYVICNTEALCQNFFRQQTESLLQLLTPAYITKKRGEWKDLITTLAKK

Caspase-3 [4] = biological target: T3, Caspase-3 (Homo sapiens, UniProt P42574); test: SAR Analysis of small molecule inhibitors of Sentrin-specific proteases (SENPs) using a Caspase-3 Selectivity assay. [Related pubchem assays (depositor defined):AID2540, AID2599, AID434973, AID489001]
T3 sequence (P42574 whole entry): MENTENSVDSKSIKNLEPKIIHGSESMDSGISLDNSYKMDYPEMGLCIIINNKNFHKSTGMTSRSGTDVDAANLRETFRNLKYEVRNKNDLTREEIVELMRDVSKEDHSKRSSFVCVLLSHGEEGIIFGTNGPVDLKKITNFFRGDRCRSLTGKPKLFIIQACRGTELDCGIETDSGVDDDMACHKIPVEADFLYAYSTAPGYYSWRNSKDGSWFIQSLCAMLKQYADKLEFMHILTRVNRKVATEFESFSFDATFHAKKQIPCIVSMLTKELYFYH

[5] = biological target: T4, Sentrin-specific protease 7 (Homo sapiens, UniProt Q9BQF6); test: inhibition of human SENP7 cleavage activity – biochemical, luminescence, SAR follow-up (AID 504497)
T4 sequence (Q9BQF6 whole entry): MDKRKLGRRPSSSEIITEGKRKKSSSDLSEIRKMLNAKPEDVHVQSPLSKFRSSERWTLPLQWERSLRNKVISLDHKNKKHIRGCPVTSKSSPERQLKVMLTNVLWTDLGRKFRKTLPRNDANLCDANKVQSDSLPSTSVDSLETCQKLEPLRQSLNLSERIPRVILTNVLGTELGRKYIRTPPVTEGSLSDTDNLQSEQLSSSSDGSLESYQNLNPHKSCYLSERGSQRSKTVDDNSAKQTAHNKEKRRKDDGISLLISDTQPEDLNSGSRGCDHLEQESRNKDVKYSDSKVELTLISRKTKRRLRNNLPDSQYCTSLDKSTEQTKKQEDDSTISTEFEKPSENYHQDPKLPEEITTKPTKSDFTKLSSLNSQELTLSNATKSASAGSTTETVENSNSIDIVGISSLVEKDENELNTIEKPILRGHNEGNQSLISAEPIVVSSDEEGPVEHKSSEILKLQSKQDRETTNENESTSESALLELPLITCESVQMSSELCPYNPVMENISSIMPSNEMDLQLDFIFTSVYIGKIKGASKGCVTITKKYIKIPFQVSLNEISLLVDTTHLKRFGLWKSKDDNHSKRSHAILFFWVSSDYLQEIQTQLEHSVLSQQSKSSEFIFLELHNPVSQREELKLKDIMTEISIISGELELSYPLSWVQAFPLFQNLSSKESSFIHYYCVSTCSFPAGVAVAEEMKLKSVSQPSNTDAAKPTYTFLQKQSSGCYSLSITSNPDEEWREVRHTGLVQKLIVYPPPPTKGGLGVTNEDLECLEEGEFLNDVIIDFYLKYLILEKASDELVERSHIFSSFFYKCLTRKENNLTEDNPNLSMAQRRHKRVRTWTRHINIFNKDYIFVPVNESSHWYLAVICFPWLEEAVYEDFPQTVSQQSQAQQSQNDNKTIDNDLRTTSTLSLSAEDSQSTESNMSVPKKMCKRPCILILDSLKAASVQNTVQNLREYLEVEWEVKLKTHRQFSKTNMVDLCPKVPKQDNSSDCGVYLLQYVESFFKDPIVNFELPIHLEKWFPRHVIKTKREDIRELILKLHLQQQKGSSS

[6] = biological target: T5, Sentrin-specific protease 6 (Homo sapiens, UniProt Q9GZR1); test: SAR Analysis of small molecule inhibitors of Sentrin-specific protease 6 (SENP6) using a Luminescent assay. [Related pubchem assays (depositor defined):AID2582, AID2599]
T5 sequence (Q9GZR1 whole entry): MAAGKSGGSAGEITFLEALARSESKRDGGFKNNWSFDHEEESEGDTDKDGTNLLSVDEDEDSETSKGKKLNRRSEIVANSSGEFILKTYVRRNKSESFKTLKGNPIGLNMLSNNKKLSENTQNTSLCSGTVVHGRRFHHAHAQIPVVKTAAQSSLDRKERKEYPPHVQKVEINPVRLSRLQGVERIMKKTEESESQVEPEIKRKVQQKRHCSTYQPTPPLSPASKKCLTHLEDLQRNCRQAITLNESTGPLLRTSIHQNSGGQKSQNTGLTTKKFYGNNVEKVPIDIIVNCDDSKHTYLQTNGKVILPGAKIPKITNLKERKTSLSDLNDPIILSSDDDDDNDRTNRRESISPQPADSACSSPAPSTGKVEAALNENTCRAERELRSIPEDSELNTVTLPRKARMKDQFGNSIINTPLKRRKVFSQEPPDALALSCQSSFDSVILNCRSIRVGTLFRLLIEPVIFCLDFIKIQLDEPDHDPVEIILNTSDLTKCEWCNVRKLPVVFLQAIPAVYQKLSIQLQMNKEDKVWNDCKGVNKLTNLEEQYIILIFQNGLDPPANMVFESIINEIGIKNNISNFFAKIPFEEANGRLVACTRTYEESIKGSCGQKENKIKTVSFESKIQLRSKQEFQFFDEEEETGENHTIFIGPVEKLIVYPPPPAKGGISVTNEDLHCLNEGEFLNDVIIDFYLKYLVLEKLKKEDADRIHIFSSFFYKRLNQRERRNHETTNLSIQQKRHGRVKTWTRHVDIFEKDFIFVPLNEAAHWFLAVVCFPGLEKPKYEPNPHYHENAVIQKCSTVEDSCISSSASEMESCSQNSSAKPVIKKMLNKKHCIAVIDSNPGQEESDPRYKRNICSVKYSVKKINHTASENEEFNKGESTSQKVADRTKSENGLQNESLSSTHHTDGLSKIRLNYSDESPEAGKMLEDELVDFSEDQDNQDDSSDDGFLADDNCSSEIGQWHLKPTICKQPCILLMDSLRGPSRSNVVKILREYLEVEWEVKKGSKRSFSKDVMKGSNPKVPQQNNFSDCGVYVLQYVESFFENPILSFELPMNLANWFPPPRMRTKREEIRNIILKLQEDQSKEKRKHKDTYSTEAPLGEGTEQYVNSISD

[7] = biological target: T4, Sentrin-specific protease 7
[8] = biological target: T2, Sentrin-specific protease 8
[9] = biological target: T5, Sentrin-specific protease 6
H4 = test: Luminescence Cell-Based Dose Response HTS to Identify Activators of 5'UTR Stem-Loop Driven Prion Protein mRNA Translation in H4 Neuroglioblastoma Cells. [Related pubchem assays: 1829 (Project Summary), 1814 (Primary HTS)]; settings: Homo sapiens
Caspase-3 [10] = biological target: T3, Caspase-3
[11] = Luminescence Cell-Based Dose Confirmation HTS to Identify Activators of 5'UTR Stem-Loop Driven Alpha-Synuclein mRNA Translation in H4 Neuroglioblastoma Cells. [Related pubchem assays: 1829 (Project Summary), 1814 (Primary HTS)]

Compound	IC50 [1]	IC50 [2]	IC50 [3]	IC50 (Caspase-3 [4])	IC50 [5]	IC50 [6]	IC50 [7]	IC50 [8]	IC50 [9]	EC50 (H4)	IC50 (Caspase-3 [10])	EC50 [11]
CC(C)(C)NCC(O)Cn1cc(C=O)c2ccccc21 (stereo not drawn)	0.738 µM (active)	0.113 µM (active)	–	–	–	–	–	–	–	–	–	–
O=C(COc1ccccc1Br)c1ccc(O)cc1O	2.29 µM (active)	11.2 µM (active)	–	–	–	–	–	–	–	–	–	–
C(=N\Nc1ccccc1)/c1c[nH]c2ccccc12	–	–	> 99 µM (inactive)	> 99 µM (inactive)	25.7 µM (active)	> 99 µM (inactive)	–	–	–	–	–	–
O=C(O)c1ccc(N/N=C/c2cn(Cc3ccc(F)cc3)c3ccccc23)cc1	–	–	6.77 µM (active)	49.8 µM (active)	5.08 µM (active)	6.8 µM (active)	8.78 µM (active)	12.4 µM (active)	7.91 µM (active)	> 120 µM (not active)	89.1 µM (active)	> 120 µM (not active)
